# Experiments:
# Type in all cases: in vivo, Wistar rats
# [1] = Body weight, temperature and behaviour in animals treated with ADAC (Experiment 2)
# Method: A. Body weight was measured immediately before noise exposure and 14 days after noise exposure. B. Rectal temperature (° C.) was measured before ADAC administration and 30 and 60 minutes after the injection. Number of animals: n=8 per group.
# [2] = system: rats exposed to 8-12 kHz band noise for 2 hours at 110 dB SPL; experiment: ABR threshold shifts after acute (2 hours) noise exposure, systemic ADAC (Experiment 2); settings: 14 days post-noise
# Method: ABRs were measured in response to auditory clicks and pure tones (4-28 kHz) before and at time intervals (30 minutes and 14 days) after noise exposure. Five ADAC injections (100 μg/kg i.p.) were administered at 24 hour intervals commencing 6 hours post-noise. In the control group, injections of the vehicle solution were administered at the same intervals as ADAC. Data are expressed as means±SEM. Animal numbers: n=8 per group. *p<0.05; **p<0.01; unpaired t-test.
# Rats were exposed to 8-12 kHz band noise presented for 2 hours at 110 dB SPL. […]
# ABRs were obtained by placing fine platinum electrodes subdermally at the mastoid region of the ear of interest (active electrode), scalp vertex (reference) and mastoid region of the opposite ear (ground electrode). […] The sound threshold of the ABR complex (waves I-IV) were determined by progressively attenuating the sound intensity until the waveform can no longer be observed. The acoustic stimuli for ABR were produced and the responses recorded using a Tucker-Davis Technologies auditory physiology workstation (Alachua, Fla., USA).
# All ABR measurements were performed in a sound attenuator chamber (Shelburg Acoustics, Sydney, Australia). […] The ABR threshold was defined as the lowest intensity (to the nearest 5 dB) at which a response could be visually detected above the noise floor. […]
# [3] = system: organ of Corti hair cells; experiment: Hair cell loss, phalloidin-stained organ of Corti after 24 hours noise (Experiment 1); settings: basal turn, noise 8-12 kHz 110 dB SPL 24 hours, versus vehicle
# Source text: After the last ABR measurement, rats were killed by Pentobarbitone overdose and cochleae removed for histological analysis. The isolated cochleae were kept in 4% Paraformaldehyde overnight, until further processing (decapsulation or decalcification).
# After the overnight fixation, the cochlea was decapsulated in 0.1 M PBS, to isolate the organ of Corti. The organ of Corti was removed with fine forceps, and separated into the apical, middle and basal turns. Wholemount tissues of the organ of Corti were placed into a 24-well plate, and then permeabilised with 1% Trition-X in 0.1 M PBS for 1 hour. 1% Alexa Fluor 488 phalloidin (Invitrogen) dissolved in 0.1 M PBS was used to stain the hair cells and their stereocilia. Tissues were incubated in phalloidin for 40 minutes, washed with 0.1 M PBS 3×10 min and mounted onto glass slides using CitiFlour. The slides were visualised using a Zeiss epi-fluorescence microscope and processed with Axiovision v3.1 software, using dark field filter and 100×, 200×, and 400× magnification. Non-overlapping images were taken for the entire length of the cochlea, and the number of missing outer hair cells was counted for each turn and presented as a percentage of total number of hair cells.
smiles,measurement,setting,value
"NCCNC(=O)Cc1ccc(NC(=O)Cc2ccc(Nc3ncnc4c3ncn4[C@@H]3O[C@H](CO)[C@@H](O)[C@H]3O)cc2)cc1 [ADAC, adenosine amine congener]",overt behavioural changes,[1]; ADAC 100 μg/kg,did not induce overt behavioural changes
same,body weight,"[1]; ADAC 100 μg/kg, before noise exposure and 14 days after",did not induce overt behavioural changes in rats or alterations in body weight
same,"signs of systemic toxicity (loss of body weight, feeding or drinking behaviour, hypothermia)",[1]; ADAC treatment,No signs of systemic toxicity
same,body temperature (rectal),[1]; before and 30 and 60 minutes after ADAC 100 μg/kg injection,remained stable
same,ABR threshold shifts versus vehicle-treated controls,[2]; five ADAC injections,threshold shifts were reduced
same,"threshold recovery, highest","[2]; pure tone frequencies 4 to 16 kHz, five ADAC injections 100 μg/kg i.p. commencing 6 hours post-noise",up to 30 dB
same,"hair cell morphology, surface preparation of the organ of Corti",[3],well preserved hair cell morphology

# From patent US20110207689A1, “THE TREATMENT OF HEARING LOSS” (Auckland UniServices Limited, priority 2008, published 2011)
